The target in assay [1] is T1, Estrogen receptor (Homo sapiens) (UniProt P03372).
T1 sequence (whole entry): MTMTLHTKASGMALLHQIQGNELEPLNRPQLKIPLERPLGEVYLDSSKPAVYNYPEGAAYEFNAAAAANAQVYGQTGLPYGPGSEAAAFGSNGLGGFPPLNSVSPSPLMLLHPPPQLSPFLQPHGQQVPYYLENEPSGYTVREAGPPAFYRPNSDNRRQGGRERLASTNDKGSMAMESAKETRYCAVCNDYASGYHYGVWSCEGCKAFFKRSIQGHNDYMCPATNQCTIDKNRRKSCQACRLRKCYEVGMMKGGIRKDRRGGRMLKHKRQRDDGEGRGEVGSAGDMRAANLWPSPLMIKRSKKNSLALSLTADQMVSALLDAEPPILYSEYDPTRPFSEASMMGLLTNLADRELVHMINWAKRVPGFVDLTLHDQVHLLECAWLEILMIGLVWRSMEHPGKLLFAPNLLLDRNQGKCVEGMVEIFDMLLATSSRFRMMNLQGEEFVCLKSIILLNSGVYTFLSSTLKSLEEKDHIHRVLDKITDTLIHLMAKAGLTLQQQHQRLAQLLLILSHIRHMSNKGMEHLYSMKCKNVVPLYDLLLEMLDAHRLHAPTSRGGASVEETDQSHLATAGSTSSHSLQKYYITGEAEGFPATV
The note with it: MCF7, 10 uM.

For assay [2], the target named is T1, Estrogen receptor (Homo sapiens). The note with it: MCF7, 25 uM.

Experimental findings from ChEMBL document CHEMBL1212895 are described below.

For `O=c1c(-c2ccc(O)cc2)coc2cc(OC3CCCC3)ccc12`, the figures for the inhibition in assay [1] and in assay [2] were 54.1% and 89.8%, respectively.
The like results for `CC(C)Oc1ccc2c(=O)c(-c3ccc(O)cc3)coc2c1` were, in that order, 33.4% and 68.1%.
On to `O=c1c(-c2ccc(O)cc2)coc2cc(O)ccc12`, for which the inhibition – broadly, how much of the control response was suppressed – in assay [1] was 17.2%.
In the case of `CC(C)COc1ccc2c(=O)c(-c3ccc(O)cc3)coc2c1`, the values for the inhibition in assay [1] and in assay [2] were 60.5% and 91.3%, respectively.
On to `CC1(C)C=Cc2c(ccc3c(=O)c(-c4ccc(O)cc4)coc23)O1`, for which the results for the inhibition in assay [1] and in assay [2] were 54.6% and 100%, respectively.
`CCCCCCOc1ccc2c(=O)c(-c3ccc(O)cc3)coc2c1`: the inhibition in assay [2] worked out at 46.4%.
Compound `CCCCOc1ccc2c(=O)c(-c3ccc(O)cc3)coc2c1` came in with an inhibition in assay [2] of 49.8%.
`CCOc1ccc2c(=O)c(-c3ccc(O)cc3)coc2c1` had an inhibition in assay [2] of 18.8%.
Take `COc1ccc2c(=O)c(-c3ccc(O)cc3)coc2c1`: the inhibition in assay [2] stood at 33.2%.
Still for that read-out and setting: with `CCCOc1ccc2c(=O)c(-c3ccc(O)cc3)coc2c1` the figure was 41.4%.
